This is an account of results in US20260028319A1, “INTERMEDIATE SALT FOR THE PREPARATION OF BIS(FLUOROALKYL) BENZODIAZEPINONE COMPOUNDS” (Immunome, Inc., priority 2022, published 2026).

Format in all cases: physicochemical
Data set [1] is described as follows: (I-1) and (1) stability study, water content by KF. The conditions noted are these: for Water content (by KF) following storage: 6 months; for Water content (by KF), Initial Results: before storage. As to the method:
(§1) Assay and water content of the oily free acid (I-1) were tested following a 6-month period in 25° C./60% RH (relative humidity) and 40° C./75% RH (Table 2a).

A short description of data set [2]: (I-1) and (1) stability study, assay by HPLC. The following applies: for Stability, in words: free acid versus CHA salt; for Assay (by HPLC), Initial Results: before storage. As to the method:
as §1
Similarly, the corresponding CHA salt (1), which is a powder, was tested for its purity/assay:
It could be stipulated that increased water amount over time in the free acid gives rise to the observed assay which deteriorates as the test progresses.

Data set [3] in a line: Stability of Na, CHA and tBuNH2 salts of (I-1), GC/MS assay. The procedure: Na and tBuNH2 salts of (I-1) were prepared. Stability of the salts was tested and compared to the stability of the CHA salt ((1)).
Table 3 also emphasizes that specific salts of (I-1) provide high purity over time. However, it cannot be said that any possible salt (any possible cation) of (I-1) will give rise to such high stability over time.

Take `CC(C)(C)OC(=O)C[C@@H](CCC(F)(F)F)C(=O)O` [(1)]: the “Water content (by KF) following storage” value in data set [1] (25° C./60% RH) and in data set [1] (40° C./75% RH) was 0.3% in each case. Moreover, the “Water content (by KF), Initial Results” value in data set [1] was found to be 0.2%. The “Assay by HPLC” value in data set [2] (1 month, 2-8° C.) came out at 96.2 % w/w; in data set [2] (1 month, 25° C./60% RH), 94.8 % w/w; in data set [2] (1 month, 40° C./75% RH), 94.3 % w/w; in data set [2] (3 months, 2-8° C.), 95.1 % w/w; in data set [2] (3 months, 25° C./60% RH) it was 94.5 % w/w; in data set [2] (3 months, 40° C./75% RH) it was 93.0 % w/w. Also, the “Assay by HPLC” value in data set [2] (6 months, 2-8° C.) was determined as 94.6 % w/w. The “Assay (by HPLC) following storage” value in data set [2] (6 months, 25° C./60% RH) turned out to be 95.1 % w/w; in data set [2] (6 months, 40° C./75% RH) it was 94.4 % w/w. Also, the “Stability, in words” value in data set [2] is reported as “much more stable”. Also, the “Assay (by HPLC), Initial Results” value in data set [2] is recorded as 95.0 % w/w. Besides, the “Purity (GC/MS assay) At 2-8° C. for 1 week” value in data set [3] (2-8° C., 1 week) is 95.8 % w/w. Moreover, the “Purity (GC/MS assay) At 45° C. for 1 week” value in data set [3] (45° C., 1 week) is 98.2 % w/w. The “Stability among salts of (I-1), in words” value in data set [3] (Na, CHA and tBuNH2 salts compared) is “most stable salt”.
In the case of `CC(C)(C)OC(=O)C[C@@H](CCC(F)(F)F)C(=O)O` [(I-1), (2R)-2-(2-tert-Butoxy-2-oxoethyl)-5,5,5-trifluoropentanoic acid, reference compound], the “Water content (by KF) following storage” value turned out to be 2.0% in data set [1] (25° C./60% RH) and 2.3% in data set [1] (40° C./75% RH). In data set [1], the “Water content (by KF), Initial Results” value is on record as 0.8%. Also, the “Assay (by HPLC) following storage” value in data set [2] (6 months, 25° C./60% RH) was 92.8 % w/w; in data set [2] (6 months, 40° C./75% RH), 84.5 % w/w. In addition, the “Stability, in words” value in data set [2] (listed as free acid compound) is “unstable”. The “Assay (by HPLC), Initial Results” value in data set [2] is listed as 93.5 % w/w.
